Measured values from PubChem BioAssay AID624404 (Broad Institute, 2012).
Records with an inconclusive call do not appear. The source made the active and inactive calls.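 The calls were made as follows: active = luciferase signal rise whose fitted curve crosses a set activity limit at or below the top valid tested dose; inconclusive = flat fit with 30 to 70% rise, or poor fit; inactive = signal falling, flat within 30%, or crossing above top dose.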

System: D54 LucT luciferase reporter counterscreen, luminescence, 24 h
Test: luciferase activators in glycosylation-insensitive reporter cells, dose response, counter-screen for N-linked glycosylation inhibitor project, D54 LucT cells, luminescence, cherry pick (AID 624404)

| Structure (SMILES) | AC35 |
| --- | --- |
| Cc1cccc(/C=N\Nc2cn[nH]c(=O)c2Cl)c1 | 163 nM |
| CCOc1cc(C(=O)Nc2ccc(N3CCOCC3)cc2)cc(Br)c1OC | 3660 nM |
| O=C(NCCc1ccccc1)C1c2ccccc2C(=O)N1Cc1cccs1 (centres undefined) | 1400 nM |
| COc1cccc(Sc2ccccc2/C=N/NC(N)=O)c1 | 3390 nM |
| O=C(Nc1ccc2oc(-c3cccnc3)nc2c1)c1ccc([N+](=O)[O-])o1 | 1460 nM |
| COc1cccc(C(=O)Nc2ccc3c(c2)C(=O)c2ccccc2C3=O)c1 | 121 nM |
| COCCNC(=O)c1cc(-c2ccccc2OC)on1 | 3840 nM |
| O=c1cc(N2CCN(c3ccccc3Cl)CC2)[nH]c(=O)n1Cc1ccc(F)cc1 | 3260 nM |
| O=S(=O)([N-]c1nc2ccccc2nc1-n1cc[n+](Cc2ccccc2)c1)c1ccc(Cl)cc1 | 89.8 nM |
| CCn1ncc(C2=NOC(C(=O)NCc3ccccc3)C2)c1C (centres undefined) | 9540 nM |
| CC(=O)Nc1ccc(Nc2ccc3c4c(cc(=O)n3C)-c3ccccc3C(=O)c24)cc1 | 345 nM |
| Cc1nnc2c(NC3CCCCC3)nc3ccccc3n12 | 3510 nM |
| Cc1ccc(C(=O)N/C(=C\c2cccs2)C(=O)NCCc2c[nH]c3ccccc23)cc1C | 116 nM |
| C=CCNc1nc2cc(-c3ccccc3C)sc2c(=O)n1C | 1110 nM |
| CN(C)c1ccc(/C=N/NC(=O)c2ccccc2Cl)cc1 | 119 nM |
| CC#CC#Cc1cccc(=O)o1 | 407 nM |
| COc1cc(C#Cc2ccc3cc(CCCO)oc(=O)c3c2)cc(OC)c1 | 62.8 nM |
| CC(C)c1ccc(/C=N/NC(=O)c2ccccc2Cl)cc1 | 247 nM |
| O=C1Cc2c(-c3ccccc3)cc(-c3cccc(Cl)c3)nc2-c2ccccc2N1 | 5370 nM |
| Cc1noc(C)c1COc1ccc(C(=O)NNC(=O)c2ccccc2)cc1 | 271 nM |
| O=C(NCCCN1CCOCC1)c1cc(-c2ccccc2)on1 | 3040 nM |
| Cc1noc(C)c1-c1ccc(C(=O)NCCc2ccccc2)c2occc12 | 2770 nM |

| Structure (SMILES) | AC35 |
| --- | --- |
| Cc1nc(Nc2nc(-c3ccccc3)cc(=O)[nH]2)nc2ccccc12 | 4910 nM |
| O=C(/C=C/c1cccc([N+](=O)[O-])c1)c1ccc2c(c1)OCCO2 | 247 nM |
| CN(Cc1ccccc1)c1nc2c(c(=O)n(C)c(=O)n2C)n1CCCc1ccccc1 | 893 nM |
| COc1cc(OC)c(N2CC(C(=O)Nc3cc(Cl)ccc3N3CCOCC3)CC2=O)cc1Cl (centres undefined) | 1260 nM |
| COc1ccccc1NC(=O)c1ccc(-c2ccc(Br)cc2)o1 | 466 nM |
| COc1ccc(/C=C/C(=O)Oc2cccc(/C=N/NC(=O)COc3c(C)cccc3C)c2)cc1 | 3250 nM |
| COC(=O)c1c(C)[nH]c(C(=O)/C=C/c2cccc(Cl)c2)c1C | 839 nM |
| COC(=O)c1c(NC(=O)CN2C(=O)NC3(CCC(C)CC3)C2=O)sc2c1CCC2 (centres undefined) | 592 nM |
| Cn1c(=O)[nH]c(=O)c2c1nc(NN)n2CCOc1ccccc1 | 3090 nM |
| Cc1c2cnccc2c(C)c2c1oc1ccccc12 | 3320 nM |
| CC1CN(C(=O)c2cc(-c3ccc(Cl)s3)nc3ccccc23)CC(C)O1 (centres undefined) | 3320 nM |
| CC1CN(C(=O)c2ccc(COc3ccc4ccccc4c3)o2)CC(C)O1 (centres undefined) | 306 nM |
| CC(=O)Nc1ccc(CNc2ncnc3ccc(-c4c(C)noc4C)cc23)cc1 | 264 nM |
| Cc1ccc2nsnc2c1NC(=O)c1ccc(-c2cc(Cl)ccc2Cl)o1 | 1550 nM |
| O=C1C=C(c2cccs2)C[C@H](c2ccccc2)[C@H]1n1nnc([N+](=O)[O-])n1 | 208 nM |
| C[C@@]12C(=O)Nc3ccc(Br)cc3C(=O)N1[C@H]1c3ccccc3OC[C@@H]1[C@@H]2c1ccccc1 | 785 nM |
| O=S(=O)(Cc1ccc(Cl)cc1Cl)c1ccc(Cl)cc1 | 1490 nM |
| Cc1ccc(C(=O)N/C(=C/c2ccco2)C(=O)NCCc2c[nH]c3ccccc23)cc1 | 1750 nM |
| CC#CCN1c2ccccc2[C@]23C[C@@H](C(=O)OC)N(C(=O)c4cc(C)oc4C)C2=NC(C(=O)OC)=C(C(=O)OC)[C@H]13 | 2270 nM |
| CC12CC[C@H]3[C@@H](CCC4(O)C[C@H](O)CCC34/C=N/NC(=O)c3ccccc3O)C1(O)CCC2C1=CC(=O)OC1 (some centres undefined) | 6220 nM |
| CCOC(=O)N/N=C/c1ccc(N(CC)CC)cc1O | 2580 nM |
| COc1cc2cnc(-c3ccccc3)cc2cc1OC | 2540 nM |

| Structure (SMILES) | AC35 |
| --- | --- |
| COc1cccc(C(NC(C)=O)c2nc(-c3ccccc3OC)cs2)c1 (centres undefined) | 93.3 nM |
| O=C(CCl)Nc1cccc(S(=O)(=O)NC2=NCCC2)c1 | 1620 nM |
| CC(=O)c1ccc(N2CCN(C(=O)c3cccc(Oc4ccccc4)c3)CC2)cc1 | 1270 nM |
| COc1ccc2c(c1)[C@H]1[C@H](CO2)[C@H](c2ccccc2)[C@]2(C)C(=O)Nc3cc(C)ccc3C(=O)N12 | 66.8 nM |
| COc1cc(C(=O)NCC(=O)NCCN2C(=O)S/C(=C\c3ccccc3Cl)C2=O)cc(OC)c1OC | 1150 nM |
| O=C(NCCCn1ccnc1)c1cc(-c2ccccc2)on1 | 1480 nM |
| O=C(N/N=C/c1ccccn1)c1sc2ccccc2c1Cl | 93.1 nM |
| CC(=O)NC(c1cccc(F)c1)c1nc(-c2ccccc2C)cs1 (centres undefined) | 263 nM |
| Cc1ccc(Sc2c(CO)c(-c3ccccc3)nn2C)cc1 | 166 nM |
| CCOC(=O)N1CCc2cc(OC)c(OC)c3c2c1cc1cc(OC)c(OC)cc13 | 1940 nM |
| Cc1ccc(C(=O)Nc2ccc(C(=O)/C=C/c3cccs3)cc2)cc1 | 709 nM |
| O=C(c1cccc(Oc2ccccc2)c1)N1CCN(c2ccccn2)CC1 | 2960 nM |
| Cn1c(=O)cc(OCCCC(=O)Nc2ccc3c(c2)OCCO3)c2ccccc21 | 353 nM |
| Cc1cccc2c(C(=O)N3CCN(c4ccccc4)CC3)cc(-c3ccncc3)nc12 | 126 nM |
| CCN(CC)c1ccc(C(=O)n2cnc3ccccc32)cc1 | 662 nM |
| O=C(Nc1cc(=O)[nH]c(=O)[nH]1)c1cc(Cl)ccc1Cl | 3150 nM |
| O=C1Cc2c([nH]c3ccc(Br)cc23)-c2ccccc2N1 | 2.52 nM |
| O=C(C[C@@H]1C/C=C/CC[C@H](Cc2ccc(F)cc2)C(=O)OC[C@@H](Cc2ccccc2)NC1=O)N[C@H](CO)Cc1ccccc1 | 4640 nM |
| Cn1cccc1/C=C1\SC(=Nc2ccccc2)NC1=O | 473 nM |
| Cc1ccc(-c2nc3ncccc3o2)cc1NC(=O)c1ccc([N+](=O)[O-])o1 | 505 nM |
| O=C(N/N=C/c1ccc2c(c1)OCO2)C1COc2ccccc2O1 (centres undefined) | 187 nM |
| Cn1nc(-c2ccccc2)c(CSc2ccccc2Cl)c1Cl | 1120 nM |

| Structure (SMILES) | AC35 |
| --- | --- |
| COc1ccc(CC(=O)N(Cc2ccccc2)c2ccc(C)cc2)cc1OC | 1040 nM |
| C=CCn1c(O)c(/C=C2/C=CC=N2)c(=O)[nH]c1=O | 14300 nM |
| Cc1ccc2nc(-c3ccc(SCC(=O)Nc4nnc(C)s4)nc3)[nH]c2c1 | 22.4 nM |
| C[C@@]12C(=O)Nc3cc(Cl)ccc3C(=O)N1[C@H]1c3ccccc3OC[C@@H]1[C@@H]2c1ccccc1 | 282 nM |
| COc1ccc2c(c1)[C@H]1[C@H](CO2)[C@H](c2ccccc2)[C@]2(C)C(=O)Nc3cc(OC)c(OC)cc3C(=O)N12 | 20.2 nM |
| CC1(C(=O)NCC2CCOCC2)Cc2c(-c3cccc(C(F)(F)F)c3)ccnc2O1 (centres undefined) | 32.5 nM |
| COc1ccc(OC)c(N(CC(=O)Nc2cccc3ccccc23)S(C)(=O)=O)c1 | 2420 nM |
| Cc1ccc(C)n1-c1ccc(C(=O)/C=C/N(C)C)cc1 | 1050 nM |
| COc1ccc2c(c1)[C@H]1[C@H](CO2)[C@H](c2ccccc2)[C@]2(C)C(=O)Nc3ccc(F)cc3C(=O)N12 | 582 nM |
| Cn1c(=O)[nH]c(=O)c2c1nc(SCC(N)=O)n2Cc1cccc(Br)c1 | 421 nM |
| Cc1ccc(CC(=O)NCc2ccc(F)cc2)cc1 | 4270 nM |
| COc1ccc(OC)c2nc3c(C(=O)NCCN(C)C)cccc3nc12 | 384 nM |
| Cc1nn(-c2ccccc2)c2c1CC(=O)Nc1ccccc1-2 | 3160 nM |
| Cc1ccc(NC(=O)c2ncn(CCCNCc3ccccc3)n2)cc1C | 994 nM |
| Cc1ccc2nc(SCC(=O)Nc3ccc4sc(C)nc4c3)c(C#N)cc2c1 | 4.83 nM |
| c1ccc(-c2cc(-c3nnc4n3N=C(c3ccc5ccccc5c3)CS4)[nH]n2)cc1 | 205 nM |
| CC[C@H](C)[C@@H](NC(=O)O[C@@H]1C(=O)c2cc(OC)ccc2O[C@H]1c1ccc(OC)c(Br)c1)C(=O)OC | 1480 nM |
| COc1ccc(S(=O)(=O)Nc2ccc3c(c2)n(C)c(=O)n3C)cc1OC | 104 nM |
| NNC(=O)c1ccc(OCC2CC(c3ccc(Cl)cc3)=NO2)cc1 (centres undefined) | 157 nM |
| CC1c2cc3c(cc2CCN1C(=O)c1ccc(Br)cc1)OCCCO3 (centres undefined) | 172 nM |
| COc1cc2c(cc1OC)C(c1cccs1)N(C(=O)c1cccc(S(=O)(=O)N(C)C)c1)CC2 (centres undefined) | 640 nM |
| CCOC(=O)n1c(=O)n(Cc2ccc(OC)cc2)c2ccccc21 | > 19500 nM (inactive) |

| Structure (SMILES) | AC35 |
| --- | --- |
| CCN(CC)CCNC(=O)c1cc2c(=O)n(C)c3ccccc3c2s1 | 3550 nM |
| CC(C)Oc1ccc(C(=O)Nc2ccc3c(c2)n(C)c(=O)n3C)cc1 | 5520 nM |
| c1ccc(Cc2nnc(Sc3ccccc3)c3ccccc23)cc1 | 3830 nM |
| Cc1nc(-c2ccccc2)sc1-c1nc(-c2ccncc2)ncc1S(=O)(=O)c1ccccc1 | 411 nM |
| CC(=O)C1=C(O)C(=O)N(c2ccc(Br)cn2)C1c1ccc(Br)cc1 (centres undefined) | 55.2 nM |
| CCC(c1nc2ccccc2c(=O)n1-c1nc2ccccc2s1)N1C(=O)c2ccccc2C1=O (centres undefined) | 740 nM |
| O=C(O)c1ccc(CN2C(=O)c3cccc4c([N+](=O)[O-])ccc(c34)C2=O)cc1 | 1140 nM |
| COc1cc2c(cc1OC)C(c1ccccc1)N(C(=O)c1ccco1)CC2 (centres undefined) | 375 nM |
| CCOc1ccc(/C=C/C(=O)c2ccccc2)cc1OC | 1260 nM |
| O=C(c1ccc2ncsc2c1)N1CCN(c2cccc(C(F)(F)F)c2)CC1 | 629 nM |
| COc1ccc(Nc2oc(-c3ccc(Cl)cc3)nc2C#N)cc1 | 202 nM |
| COc1ccc(NC(=O)CSc2nc3ccsc3c(=O)n2Cc2ccccn2)c(OC)c1 | > 19500 nM (inactive) |
| Cc1cnc(C(=O)Nc2ccc(OC(F)(F)F)cc2)cn1 | 3180 nM |
| COc1cc(F)ccc1-c1csc(C(NC(C)=O)c2ccc(F)c(F)c2)n1 (centres undefined) | 270 nM |
| CCN(c1ccccc1)S(=O)(=O)c1ccc(N)c(OC)c1 | 1820 nM |
| COc1ccc(Nc2nc(N)c(C(=O)c3ccc(OC)cc3)s2)cc1 | 148 nM |
| C[C@@]12C(=O)Nc3cc(F)c(F)cc3C(=O)N1[C@H]1c3cc(Cl)ccc3OC[C@@H]1[C@@H]2c1ccccc1 | 1600 nM |
| NC(=O)c1cccc(-c2ccnc3c2CC(C(=O)NCc2ccccc2)O3)c1 (centres undefined) | 283 nM |
| CCOC(=O)N1CCN(C(=O)c2cc(-c3ccncc3)nc3ccccc23)CC1 | 5630 nM |
| Cc1cccc(NC(=O)c2cnn3ccccc23)c1C | 532 nM |
| CC(=O)Nc1sc(NC(=O)c2ccccc2)nc1-c1cccs1 | 8340 nM |
